Patent US5756450A, “Water soluble monoesters as solubilisers for pharmacologically active compounds and pharmaceutical excipients and novel cyclosporin galenic forms” (Novartis Corporation, priority 1987, dated 1998)

Assays:
[1] = Solubilisation in aqueous 10% saccharose monolaurate L-1695 solution (Example 12); type: physicochemical; details: aqueous solution of saccharose monolaurate L-1695, 10% by weight
Excerpt: A solid solution is obtained by removing the water by freeze drying.

[2] = Water solubility of the active compound; type: physicochemical

amount that can be solubilised per ml [1] [mg per ml] | water solubility [2] | Compound
3 | – | CC(=O)[C@H]1CC[C@H]2[C@@H]3CCC4=CC(=O)CC[C@]4(C)[C@H]3CC[C@]12C [Progesterone]
3 | below 0.1 g/100 ml | Cc1ccc2c(-c3ccccc3)nc(=O)n(C(C)C)c2c1 [Proquazone, 1-isopropyl-7-methyl-4-phenyl-2(1H)-quinazolinone]
